{"source": "patent US8735443B2", "about": "“Method of treating diabetes-related vascular complications” (Kuwait University, priority 2008, dated 2014)", "key": {"[1]": {"tested_on": "NAD(P)H oxidase", "assay": "NAD(P)H oxidase activity in aortic homogenates (lucigenin photoemission)", "format": "biochemical, rat", "conditions": "GK rats after LA therapy", "protocol": "Determination of NAD(P)H oxidase activity in the aorta was determined based on superoxide induced lucigenin photoemission. Enzyme assays were carried out in a final volume of 1 ml. containing (in mM) 50 phosphate buffer; pH 7.0, 1 EGTA, 150 sucrose, 0.5 lucigenin, 0.1 NAD(P)H and tissue homogenate. Enzyme reactions were initiated with the addition of lucigenin. Photoemission, expressed in terms of relative light units (RLU), was measured every 5 min. using a luminometer. All assays were carried out in the dark at room temperature."}, "[2]": {"tested_on": "gp 91^phox", "assay": "Aortic mRNA expression by real-time PCR, gp 91phox", "format": "in vivo, rat", "conditions": "aorta of LA-treated GK rats", "description": "(§1) Further, with regard to quantitative real-time polymerase chain reactions (PCR) in the study, total RNA from the arterial samples was isolated using TRIZOL® reagent, and RNA integrity was verified by agarose gel electrophoresis and quantified by spectrophotometry. Reverse transcription reaction of total RNA (5 μg) was performed using a superscript 111 first-strand synthesis system. Quantitative real-time PCR was performed using fast SYBR Green QPCR. […]\n(§2) The housekeeping gene beta-actin was used for internal normalization. Fidelity of the PCR reaction was determined by melting temperature analysis. PCR efficiency for each primer pair was determined by quantitating amplification with increasing concentration of template cDNA. […] RNA expression of target genes was calculated based on the real-time PCR efficiency E and the threshold crossing point (CP) and is expressed relative to the reference gene beta-actin."}, "[3]": {"tested_on": "nox-1", "assay": "Aortic mRNA expression by real-time PCR, nox-1", "format": "in vivo, rat", "conditions": "aorta of LA-treated GK rats", "description": "as §1, §2"}, "[4]": {"tested_on": "aortic tissues", "assay": "Apoptotic cell death ELISA, cytoplasmic histone-associated DNA fragments in aorta", "format": "in vivo, rat", "description": "With regard to the assessment of apoptotic cell death using enzyme-linked immuno-absorbent-based assay, aortic tissues derived from control, GK and LA-treated GK rats were lysed and cytoplasmic histone-associated DNA fragments, indicating apoptotic cell death were determined by the Cell Death ELISA® plus kit. Data are reported as arbitrary optical density units normalized to protein concentration."}, "[5]": {"tested_on": "cultured arteries", "assay": "Cultured arteries of non-diabetic control animals exposed to TNF-α", "set-up": "species or system rat", "conditions": "pretreatment with LA"}, "[6]": {"tested_on": "NF-κB", "assay": "Aortic nuclear NF-κB, western blotting", "format": "in vivo, rat", "conditions": "GK rats, LA chronic therapy", "description": "For detection of caspase 3-like activity, protein was isolated and caspase activity was detected in resulting supernatant using an APO-ONE homogenous caspase 3/7 assay (Promega). With regard to subcellular fractionation and western blotting, aortic tissue nuclear extracts were prepared and protein (40 μg) was loaded in each well of […] polyacrylamide gel. Separated polypeptide was transferred to nitrocellulose membrane IBio-Rad) and probed with anti NFκB at a 1:2,000 […]. Chemiluminescent detection was performed by an ECL Western Blotting Detection Kit®.\nIt is well known that TNF-α enhances the activity of NF-κB, most probably via H202 mediated mechanisms. Using data showing that both TNF-α and H202 levels were elevated in diabetic vascular tissues, NF-κB activity was assessed using a western blotting-based technique with an antibody (anti P65) that specifically recognizes the active form of this transcription factor. […] Nuclear localization of NF-κB in aortic tissues was determined using differential centrifugation and western blotting-based techniques."}, "[7]": {"tested_on": "diabetic fibroblasts", "assay": "Inflammatory cytokine release by fibroblasts, ELISA", "format": "cell-based, rat", "conditions": "lipoic acid 500 μM, Nrf2-dependent", "excerpt": "To determine the effect of α-lipoic acid on isolated cells from normal and diabetic rats, primary rat fibroblasts were derived from dorsal skin biopsies performed on four diabetic Coto Kakizaki rats (DFs) and four age-matched (12-14 months) and sex-matched (female) Wistar control rats (CFs). After sterilization in povidine solution, the rat skin was washed in sterile water and rinsed in 70% ethanol in phosphate-buffered saline (PBS). The epidermis and dermis were separated following overnight incubation in 0.25% Trypsin/EDTA at 4° C. Samples were washed, diced and digested for thirty minutes at 37° C. in collagenase type I (250 U/ml) dissolved in Dulbecco's modified Eagle medium (DMEM; Invitrogen) containing penicillin (100 U/ml), 2 mM L-glutamine and 26 mM HEPES. After collagenase treatment, the cells were dislodged, centrifuged and resuspended in medium supplemented with 10% fetal bovine serum. […]\nWith regard to ELISA assays to determine cytokine expression levels, control and diabetic fibroblasts were seeded on a 6-well plate at 2.5×10^5 cells/well. […] After incubation for 16 hr, supernatants were collected and analyzed for key inflammatory cytokines, including TNF-α, IL-1β, fractalkine and monocyte chemoattractant protein-1 (MCP-1) using commercially available ELISA kits specific for rats and according to the protocols provided by the manufacturers (R&D and Ray Biotech). […]"}, "[8]": {"tested_on": "NF-κB", "assay": "NF-κB expression by western blotting, HEK-293", "format": "cell-based", "conditions": "HEK-293 (parental cells) exposed to α-lipoic acid", "excerpt": "Alpha-lipoic acid increased HEK-499 cells, which were engineered to be resistant to chemotherapies and radiotherapies by depleting Raf Kinase inhibitory protein resistance to lethal doses of cisplatin, a chemical used in cancer therapy."}}, "data": [{"smiles": "O=C(O)CCCCC1CCSS1", "note": "(stereo not drawn) [LA, alpha-lipoic acid]", "values": [{"measurement": "NAD(P)H oxidase driven O2− generation in homogenates of diabetic aorta", "setting": "[1]", "value": "significantly attenuated"}, {"measurement": "rate of gene expression of pg 91^phox subunit", "setting": "[2]", "value": "tended to reduce"}, {"measurement": "rate of gene expression of nox-1 subunit", "setting": "[3]", "value": "tended to reduce"}, {"measurement": "reduction of DNA fragmentation rate in diabetic arteries", "setting": "[4]; chronic LA treatment, GK rats", "value": 42, "unit": "%"}, {"measurement": "LA-mediated antiapoptotic effect after discontinuation", "setting": "[4]; two weeks after discontinuation of therapy", "value": "markedly reduced"}, {"measurement": "TNF-α-induced abnormalities (O2− generation, caspase 3/7, DNA fragmentation, Ach-induced vasorelaxation)", "setting": "[5]", "value": "partially reversed"}, {"measurement": "high NF-κB level in vascular diabetic nuclei", "setting": "[6]", "value": "reversed"}, {"measurement": "release of inflammatory cytokines by diabetic fibroblasts", "setting": "[7]", "value": "ameliorated"}, {"measurement": "NF-κB expression", "setting": "[8]", "value": "significant increase"}]}]}
